Test: Spectroscopic measurements (absorption, emission, quantum yield, extinction coefficient)
Format: physicochemical
Details: BDNCA library; for Abs: absorption; for Flu-Abs: difference emission minus absorption; for ε: extinction coefficient, in M-1 cm-1 (unit assumed); for Flu: fluorescence emission

Structure (SMILES)	Qunt. Yield	Abs [nm]	Flu-Abs	ε	Flu
CC1=CC(/C=C/c2ccoc2)=[N+]2C1=C(c1ccc(NC(=O)CCl)cc1)c1cccn1[B-]2(F)F [BDNCA-71]	0.05	550	20	43,661	570
CC1=CC(/C=C/c2nccn2C)=[N+]2C1=C(c1ccc(NC(=O)CCl)cc1)c1cccn1[B-]2(F)F [BDNCA-72]	0.02	573	45	17,849	618
CC1=CC(/C=C/c2cc(Br)ccc2O)=[N+]2C1=C(c1ccc(NC(=O)CCl)cc1)c1cccn1[B-]2(F)F [BDNCA-73]	0.04	564	21	27,185	585
CC1=CC(/C=C/c2ccc(OC(C)(C)C)cc2)=[N+]2C1=C(c1ccc(NC(=O)CCl)cc1)c1cccn1[B-]2(F)F [BDNCA-75]	0.09	562	38	35,973	600
CCCc1ccc(/C=C/C2=[N+]3C(=C(c4ccc(NC(=O)CCl)cc4)c4cccn4[B-]3(F)F)C(C)=C2)cc1 [BDNCA-77]	0.09	559	22	45,034	581
COc1cc(OC)c(/C=C/C2=[N+]3C(=C(c4ccc(NC(=O)CCl)cc4)c4cccn4[B-]3(F)F)C(C)=C2)c(OC)c1 [BDNCA-82]	0.04	582	50	18,398	632
COc1cccc(/C=C/C2=[N+]3C(=C(c4ccc(NC(=O)CCl)cc4)c4cccn4[B-]3(F)F)C(C)=C2)c1OC [BDNCA-83]	0.12	557	20	40,366	577
CC1=CC(/C=C/C=C(c2ccccc2)c2ccccc2)=[N+]2C1=C(c1ccc(NC(=O)CCl)cc1)c1cccn1[B-]2(F)F [BDNCA-85]	0.08	583	31	49,977	614
CC1=CC(/C=C/c2ccc(-c3ccccn3)cc2)=[N+]2C1=C(c1ccc(NC(=O)CCl)cc1)c1cccn1[B-]2(F)F [BDNCA-88]	0.11	566	18	27,185	584
Cc1cc(/C=C/c2ccc3c4c(cccc24)CC3)n2c1C(c1ccc(NC(=O)CCl)cc1)=C1C=CC=[N+]1[B-]2(F)F [BDNCA-89]	0.08	580	54	33,501	634
CC1=CC(/C=C/c2ccc(OCc3ccccc3)cc2)=[N+]2C1=C(c1ccc(NC(=O)CCl)cc1)c1cccn1[B-]2(F)F [BDNCA-90]	0.04	563	30	20,046	593
Cc1cc(/C=C/c2ccc(N(C)CCO)cc2)n2c1C(c1ccc(NC(=O)CCl)cc1)=C1C=CC=[N+]1[B-]2(F)F [BDNCA-91]	weak	559	–	34,050	weak
COc1cc(/C=C/C2=[N+]3C(=C(c4ccc(NC(=O)CCl)cc4)c4cccn4[B-]3(F)F)C(C)=C2)cc(OC)c1OC(C)=O [BDNCA-92]	0.01	555	24	15,652	579
CC1=CC(/C=C/c2cn(C)c3ccccc23)=[N+]2C1=C(c1ccc(NC(=O)CCl)cc1)c1cccn1[B-]2(F)F [BDNCA-94]	0.02	548	114	23,890	662
COc1cc(/C=C/C2=[N+]3C(=C(c4ccc(NC(=O)CCl)cc4)c4cccn4[B-]3(F)F)C(C)=C2)cc(OC)c1O [BDNCA-95]	0.01	574	6	31,579	580
CC1=CC(/C=C/C=C/c2ccc(N(C)C)cc2)=[N+]2C1=C(c1ccc(NC(=O)CCl)cc1)c1cccn1[B-]2(F)F [BDNCA-96]	weak	622	–	50,801	weak
CC1=CC(/C=C/c2ccc(Br)s2)=[N+]2C1=C(c1ccc(NC(=O)CCl)cc1)c1cccn1[B-]2(F)F [BDNCA-100]	0.10	574	23	48,879	597
CC1=CC(/C=C/c2ccc(Oc3ccccc3)cc2)=[N+]2C1=C(c1ccc(NC(=O)CCl)cc1)c1cccn1[B-]2(F)F [BDNCA-101]	0.20	562	27	89,245	589
CC1=CC(/C=C/c2ccc3ccc4cccc5ccc2c3c45)=[N+]2C1=C(c1ccc(NC(=O)CCl)cc1)c1cccn1[B-]2(F)F [BDNCA-103]	0.04	598	82	28,558	680

Structure (SMILES)	Qunt. Yield	Abs [nm]	Flu-Abs	ε	Flu
CC1=CC(/C=C/c2cccc(O)c2)=[N+]2C1=C(c1ccc(NC(=O)CCl)cc1)c1cccn1[B-]2(F)F [BDNCA-105]	0.06	556	19	38,719	575
CCN(CC)c1ccc(/C=C/C2=[N+]3C(=C(c4ccc(NC(=O)CCl)cc4)c4cccn4[B-]3(F)F)C(C)=C2)cc1 [BDNCA-107]	weak	624	–	56,018	weak
CC1=CC(/C=C/c2c(C)cc(C)cc2C)=[N+]2C1=C(c1ccc(NC(=O)CCl)cc1)c1cccn1[B-]2(F)F [BDNCA-108]	0.10	549	33	39,542	582
COc1ccc(/C=C/c2cc(C)c3n2[B-](F)(F)[N+]2=CC=CC2=C3c2ccc(NC(=O)CCl)cc2)cc1 [BDNCA-110]	0.16	566	30	56,568	596
CC(=O)Nc1ccc(/C=C/C2=[N+]3C(=C(c4ccc(NC(=O)CCl)cc4)c4cccn4[B-]3(F)F)C(C)=C2)cc1 [BDNCA-111]	0.04	570	29	18,947	599
CC(=O)OCCN(CCOC(C)=O)c1ccc(/C=C/C2=[N+]3C(=C(c4ccc(NC(=O)CCl)cc4)c4cccn4[B-]3(F)F)C(C)=C2)cc1 [BDNCA-114]	weak	608	–	42,288	weak
CC1=CC(/C=C/c2cc(Cl)ccc2O)=[N+]2C1=C(c1ccc(NC(=O)CCl)cc1)c1cccn1[B-]2(F)F [BDNCA-121]	0.06	564	21	39,817	585
CCOc1cccc(/C=C/C2=[N+]3C(=C(c4ccc(NC(=O)CCl)cc4)c4cccn4[B-]3(F)F)C(C)=C2)c1O [BDNCA-126]	0.01	563	15	37,071	578
Cc1cc(/C=C/c2ccccc2OCC(=O)O)n2c1C(c1ccc(NC(=O)CCl)cc1)=C1C=CC=[N+]1[B-]2(F)F [BDNCA-128]	0.02	559	25	14,554	584
CC1=CC(/C=C/c2ccc(O)c([N+](=O)[O-])c2)=[N+]2C1=C(c1ccc(NC(=O)CCl)cc1)c1cccn1[B-]2(F)F [BDNCA-131]	weak	643	–	18,124	weak
COc1ccc(/C=C/C2=[N+]3C(=C(c4ccc(NC(=O)CCl)cc4)c4cccn4[B-]3(F)F)C(C)=C2)cc1O [BDNCA-132]	0.02	569	30	36,796	599
CC1=CC(/C=C/c2[nH]cnc2C)=[N+]2C1=C(c1ccc(NC(=O)CCl)cc1)c1cccn1[B-]2(F)F [BDNCA-134]	weak	566	–	12,082	weak
CC1=CC(/C=C/c2ccc(C)o2)=[N+]2C1=C(c1ccc(NC(=O)CCl)cc1)c1cccn1[B-]2(F)F [BDNCA-135]	0.07	577	41	37,346	618
CC1=CC(/C=C/c2ccc3ccccc3c2)=[N+]2C1=C(c1ccc(NC(=O)CCl)cc1)c1cccn1[B-]2(F)F [BDNCA-137]	0.10	564	20	43,387	584
CC1=CC(/C=C/c2ccc3c(c2)OCO3)=[N+]2C1=C(c1ccc(NC(=O)CCl)cc1)c1cccn1[B-]2(F)F [BDNCA-139]	0.09	568	39	35,423	607
CCCOc1ccc(/C=C/c2cc(C)c3n2[B-](F)(F)[N+]2=CC=CC2=C3c2ccc(NC(=O)CCl)cc2)cc1 [BDNCA-140]	0.07	566	32	27,185	598
CC1=CC(/C=C/c2ccccc2C)=[N+]2C1=C(c1ccc(NC(=O)CCl)cc1)c1cccn1[B-]2(F)F [BDNCA-143]	0.13	555	22	50,801	577
COc1cc(OC)c(OC)cc1/C=C/C1=[N+]2C(=C(c3ccc(NC(=O)CCl)cc3)c3cccn3[B-]2(F)F)C(C)=C1 [BDNCA-144]	weak	585	–	62,609	weak
CC1=CC(/C=C/c2ccc(Cl)cc2Cl)=[N+]2C1=C(c1ccc(NC(=O)CCl)cc1)c1cccn1[B-]2(F)F [BDNCA-147]	0.07	557	21	23,616	578
